Assay [1] concerns the target T1, ROCKII (1-543) (Homo sapiens (Human), UniProt O75116). Description: Luciferin-Luciferase Assay (Assay 1). It is filed as biochemical. The following applies: luciferin-luciferase residual ATP; 750 nM ATP, 7.5 nM kinase. The protocol: 1. Luciferin-Luciferase Assay
The activity of ROCKII (1-543) kinase is measured utilizing Cambrex PKLight ATP Detection Reagent, a homogeneous assay technology using luciferin-luciferase to quantify residual ATP. The assay is performed in 384-well low-volume, white, non-binding surface microtiter plates (Corning). The assay buffer is 25 mM HEPES, pH 7.5, 10 mM MgCl2, 50 mM KCl, 0.2% BSA, 0.01% CHAPS, 100 μM Na3VO4 and 0.5 mM DTT. Test compounds, dissolved in neat DMSO at 500 μg/mL, are serially diluted for dose response for a final starting concentration of 3 μg/mL in 1% DMSO of assay buffer. ROCKII (1-543) (62,408 Da) is diluted in assay buffer to a final concentration of 7.5 nM in a total volume of 15 μL. Positive controls are reaction mixtures containing no test compound; negative controls (blanks) are reaction mixtures containing no kinase. After 15 minutes of pre-incubation of the test compounds with the kinase, a mixture of ATP and peptide substrate ([…]) in assay buffer is added to each well for a final concentration of 750 nM ATP and 500 nM peptide, respectively. After 90 minutes of incubation of the kinase reaction at 28° C. temperature, 10 μL of PKLight ATP Detection Reagent (warmed to room temperature previously) is added to each well. The assay plate is incubated at room temperature for additional 15 minutes and then read on an Analyst in luminescence mode. Dose-response experiments for each of the test compounds are conducted in quadruplet. IC50 values of test compounds represent 50% response of the positive control from the dose-response curve.
Target sequence in this assay (O75116 1-543): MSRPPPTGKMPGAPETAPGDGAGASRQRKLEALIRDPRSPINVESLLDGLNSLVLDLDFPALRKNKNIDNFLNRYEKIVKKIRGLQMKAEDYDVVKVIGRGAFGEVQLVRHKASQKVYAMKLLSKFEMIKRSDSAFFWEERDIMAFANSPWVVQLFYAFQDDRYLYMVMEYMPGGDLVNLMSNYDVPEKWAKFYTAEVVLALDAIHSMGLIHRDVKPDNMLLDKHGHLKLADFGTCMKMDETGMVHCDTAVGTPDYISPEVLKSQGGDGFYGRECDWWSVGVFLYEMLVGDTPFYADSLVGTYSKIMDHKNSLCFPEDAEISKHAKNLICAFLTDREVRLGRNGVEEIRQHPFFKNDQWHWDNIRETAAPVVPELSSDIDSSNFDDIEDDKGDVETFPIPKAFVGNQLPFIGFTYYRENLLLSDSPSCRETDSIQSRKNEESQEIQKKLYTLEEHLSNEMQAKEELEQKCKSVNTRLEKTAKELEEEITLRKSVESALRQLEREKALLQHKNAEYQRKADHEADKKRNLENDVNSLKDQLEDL

For assay [2], the target named is T1, ROCKII (1-543). In words: IMAP Assay (Assay 2). It is filed as biochemical. The note with it: IMAP fluorescence polarization; 100 μM ATP, 1 nM kinase. The protocol:
This assay is performed using FAM S6 substrate peptide (Catalogue #R7184) and IMAP FP Screening Express Kit detection reagents from Molecular Devices (Sunnyvale, Calif.) in IMAP kinase reaction buffer (Tris-HCl, pH 7.2, 10 mM MgCl2, 0.05% NaN3, 0.1% phosphate-free BSA) containing 1 mM DTT. Test compounds dissolved in neat DMSO at 0.3 mg/mL are serially diluted 1 to 3 for concentration response in 100% DMSO. The DMSO serial dilutions are further diluted 33.33-fold in kinase reaction buffer, and 10 μL of this buffer dilution is transferred to Corning black 96-well half area NBS plates for a final top concentration of 3 μg/mL in 1% DMSO. 10 μL aliquot of 3 nM ROCKII (1-543) diluted in kinase reaction buffer is added to each assay well for a final concentration of 1 nM kinase. 10 μL of a mixture of 600 nM FAM S6 peptide and 300 μM ATP diluted in kinase reaction buffer is added to each well for a final concentration of 200 nM peptide and 100 μM ATP. The kinase reaction mixture is incubated for 60 minutes at room temperature. Positive controls are reaction mixtures containing no test compound and negative controls (blanks) are reaction mixtures containing no kinase. The kinase reaction is stopped by addition of 60 μL IMAP progressive binding reagent (Catalog #R7284) diluted 400-fold in 1× Binding buffer A. After 30 min of incubation at room temperature, the plates are read for fluorescence polarization on Analyst Plate Reader using Ex 485 nm, Em 530 nm, and FL 505 dichroic minor. The mP signals are converted to percent of control (POC) values using the formula: POC=100*(Signal−BCTRL)÷(PCTRL−BCTRL)
Where Signal is the test well signal, BCTRL is the average of background (negative control) well signals on the plate and PCTRL is the average of positive control well signals on the plate. For the concentration-responsive compounds, POC as a function of test compound concentration is fitted to a 4-parameter logistic equation of the form: Y=A+(B−A)/[1+(x/C)D]
Where A, B, C, and D are fitted parameters (parameter B is fixed at zero POC), and x and y are the independent and dependent variables, respectively. The IC50 is determined as the inflection point parameter, C.
Target sequence in this assay (O75116 1-543, species assumed): as the sequence (O75116 1-543) above

The IC50 is the concentration that gives 50% inhibition. A lower IC50 goes with greater potency. For the molecule `CN1CCc2ccc(NC(=O)c3cccc(CNC(=O)c4cc5cc(C(N)=O)ccc5n4C)c3)cc2C1` [compound 96], the IC50 on ROCKII (1-543) [1] is 0.0038 µM; on ROCKII (1-543) [2], 0.0123 µM.
On to `CN1CCc2nc(NC(=O)c3cccc(CNC(=O)c4cc(-c5ccncc5)n[nH]4)c3)sc2C1` [compound 74], for which the figures for the 50% inhibitory concentration (IC50) against ROCKII (1-543) [1] and at ROCKII (1-543) [2] were 0.0013 µM and 0.00023 µM, respectively.
For `CN1CCc2ccc(NC(=O)c3cccc(CNC(=O)c4ccc(-c5cnco5)s4)c3)cc2C1` [compound 64], in that order: 0.0015 µM and 0.001 µM.
For `CN1CCc2nc(NC(=O)c3cccc(CNC(=O)c4cc5cc(C#N)ccc5n4C)c3)sc2C1` [compound 124], in that order: 0.0038 µM and 0.011 µM.
In turn, `CN1CCc2ccc(NC(=O)c3cccc(CNC(=O)c4cc5cccc(O)c5cc4O)c3)cc2C1` [compound 133] registered an IC50 against ROCKII (1-543) [1] of 0.08 µM.
The same measure, in the same setting: in the case of `CN1CCc2ccc(NC(=O)c3cccc(CNC(=O)c4ccc5c(c4)OCC(=O)N5)c3)cc2C1` [compound 182] it was 0.081 µM.
Regarding `CN1CCc2nc(NC(=O)c3cccc(CNC(=O)c4cn5ccc(C#N)cc5n4)c3)sc2C1` [compound 66], the IC50 at ROCKII (1-543) [1] was 0.0025 µM; against ROCKII (1-543) [2] it was 0.012 µM.
As to `CN1CCc2ccc(NC(=O)c3cccc(CNC(=O)c4ccc5c(c4)CCC(=O)N5)c3)cc2C1` [compound 184], the IC50 against ROCKII (1-543) [1] turned out to be 0.018 µM.
Still for that read-out and setting: in the case of `CN1CCc2ccc(NC(=O)c3cccc(CNC(=O)c4ccc(-c5cccnc5)s4)c3)cc2C1` [compound 62, 5-pyridin-3-yl-thiophene-2-carboxylic acid 3-(2-methyl-1,2,3,4-tetrahydro-isoquinolin-7-ylcarbamoyl)-benzylamide] it was 0.0185 µM.
In the case of `CN1CCc2nc(NC(=O)c3cccc(CNC(=O)c4csc(-c5ccncc5)n4)c3)sc2C1` [compound 22], the half-maximal inhibitory concentration (IC50) was found to be 0.0058 µM against ROCKII (1-543) [1] and 0.037 µM against ROCKII (1-543) [2].
The like results for `N[C@@H]1CCc2nc(NC(=O)c3cccc(CNC(=O)c4cccc(-c5cccnc5)c4)c3)sc2C1` [compound 40] were, in that order, 0.0019 µM and 0.01 µM.
The like results for `N[C@@H]1CCc2nc(NC(=O)c3cccc(CNC(=O)c4cccc(-c5cn[nH]c5)c4)c3)sc2C1` [compound 28] were, in that order, 0.0011 µM and 0.00045 µM.
The like results for `Cc1nccn1-c1ccc(C(=O)NCc2cccc(C(=O)Nc3ccc4c(c3)CN(C)CC4)c2)cc1` [compound 200] were, in that order, 0.003 µM and 0.0016 µM.
Take `CN1CCc2ccc(NC(=O)c3cccc(CNC(=O)c4ccc(-c5ccn[nH]5)cc4)c3)cc2C1` [compound 179]: the 50% inhibitory concentration (IC50) turned out to be 0.0066 µM at ROCKII (1-543) [1] and 0.034 µM at ROCKII (1-543) [2].
For `Cc1nnnn1-c1ccc(C(=O)NCc2cccc(C(=O)Nc3nc4c(s3)CN(C)CC4)c2)cc1` [compound 8], in that order: 0.006 µM and 0.0098 µM.
`Cc1ncc(-c2ccc(C(=O)NCc3cccc(C(=O)Nc4ccc5c(c4)CN(C)CC5)c3)s2)o1` [compound 68] came in with an IC50 on ROCKII (1-543) [1] of 0.0642 µM. That is a double-digit nanomolar value.
Regarding `CN1CCc2nc(NC(=O)c3cccc(CNC(=O)c4nnn(-c5nonc5N)c4-c4ccccc4)c3)sc2C1` [compound 46], the concentration for half-maximal inhibition (IC50) is 0.0018 µM on ROCKII (1-543) [1] and 0.0049 µM at ROCKII (1-543) [2].
As to `CN1CCc2nc(NC(=O)c3cccc(CNC(=O)c4cn5cc(C#N)ccc5n4)c3)sc2C1` [compound 88], at ROCKII (1-543) [1], the 50% inhibitory concentration (IC50) came out at 0.0457 µM. This lies in the double-digit nanomolar range.
In the case of `CN1CCc2ccc(NC(=O)c3cccc(CNC(=O)c4nnn(-c5nonc5N)c4-c4ccccc4)c3)cc2C1` [compound 123], the IC50 against ROCKII (1-543) [1] was determined as 0.0017 µM; on ROCKII (1-543) [2], 0.0039 µM.
As for `Cc1nnnn1-c1ccc(C(=O)NCc2cccc(C(=O)Nc3ccc4c(c3)CN(C)CC4)c2)cc1` [compound 37], the IC50 at ROCKII (1-543) [1] came to 0.0435 µM. That is a double-digit nanomolar value.
On ROCKII (1-543) [1], `CN1CCc2ccc(NC(=O)c3cccc(CNC(=O)c4ccc(-c5nnco5)cc4)c3)cc2C1` [compound 145] showed a concentration for half-maximal inhibition (IC50) of 0.0493 µM. The IC50 values of the last two molecules are within 1.5-fold of each other.
Regarding `Cc1sc(-c2ccncc2)nc1C(=O)NCc1cccc(C(=O)Nc2nc3c(s2)CN(C)CC3)c1` [compound 58], the IC50 is 0.0021 µM against ROCKII (1-543) [1] and 0.0012 µM against ROCKII (1-543) [2].
`CCn1c(C(=O)NCc2cccc(C(=O)Nc3ccc4c(c3)CN(C)CC4)c2)cc2cc(C#N)ccc21` [compound 102]: at ROCKII (1-543) [1], the IC50 is 0.047 µM.
On to `CN1CCc2ccc(NC(=O)c3cccc(CNC(=O)c4cc5ccc(C#N)cc5n4C)c3)cc2C1` [compound 92], for which the IC50 against ROCKII (1-543) [1] is 0.0041 µM; against ROCKII (1-543) [2], 0.017 µM.
For `Cc1nnnn1-c1ccc(C(=O)NCc2cccc(C(=O)Nc3nc4c(s3)C[C@@H](N)CC4)c2)cc1` [compound 38], in that order: 0.0011 µM and 0.00067 µM.
At ROCKII (1-543) [1], `N[C@@H]1CCc2nc(NC(=O)c3cccc(CNC(=O)c4ccc(-c5csnn5)cc4)c3)sc2C1` [compound 24] yielded an IC50 of 0.0143 µM.
Same read-out and setting: under `CCN1C(=O)CSc2ccc(C(=O)NCc3cccc(C(=O)Nc4ccc5c(c4)CN(C)CC5)c3)cc21` [compound 210] stands 0.086 µM.
On the same count and under the same terms, in the case of `CN1CCc2ccc(NC(=O)c3cccc(CNC(=O)c4cn5ccc(C#N)cc5n4)c3)cc2C1` [compound 18] it was 0.0193 µM; in that of `Cc1nc2cnccc2n1-c1ccc(C(=O)NCc2cccc(C(=O)Nc3ccc4c(c3)CN(C)CC4)c2)cc1` [compound 198], 0.038 µM.
Turning to `CN1CCc2ccc(NC(=O)c3cccc(CNC(=O)c4ccc(-c5ccncc5)cc4)c3)cc2C1` [compound 129], the IC50 against ROCKII (1-543) [1] turned out to be 0.0013 µM; on ROCKII (1-543) [2], 0.000195 µM.
For `Cc1nc(-c2ccncc2)sc1C(=O)NCc1cccc(C(=O)Nc2nc3c(s2)CN(C)CC3)c1` [compound 76], in that order: 0.0012 µM and 0.0014 µM.
On to `CN1CCc2ccc(NC(=O)c3cccc(CNC(=O)c4csc(-c5ccncc5)n4)c3)cc2C1` [compound 33], for which half-maximal inhibition against ROCKII (1-543) [1] (IC50) was put at 0.033 µM. This lies in the double-digit nanomolar range.
On the same count and under the same terms, in the case of `Cc1ncc(-c2ccc(C(=O)NCc3cccc(C(=O)Nc4nc5c(s4)CN(C)CC5)c3)s2)o1` [compound 116] it was 0.0145 µM; in that of `CN1CCc2ccc(NC(=O)c3cccc(CNC(=O)c4ccc(-c5ccc(N)nc5)s4)c3)cc2C1` [compound 177], 0.068 µM.
For the molecule `CN1CCc2ccc(NC(=O)c3cccc(CNC(=O)c4cccc(-c5ccncc5)c4)c3)cc2C1` [compound 69], the IC50 at ROCKII (1-543) [1] turned out to be 0.0445 µM.
On ROCKII (1-543) [1], `CN1CCc2ccc(NC(=O)c3cccc(CNC(=O)c4cccc(-c5cccnc5)c4)c3)cc2C1` [compound 53] had a half-inhibitory concentration (IC50) of 0.028 µM.
The same measure, in the same setting: in the case of `CCn1c(C(=O)NCc2cccc(C(=O)Nc3ccc4c(c3)CN(C)CC4)c2)cc2ccc(C#N)cc21` [compound 118] it was 0.024 µM; in that of `CN1CCc2ccc(NC(=O)c3cccc(CNC(=O)c4cn5cc(C#N)ccc5n4)c3)cc2C1` [compound 48], 0.0355 µM; in that of `CN1CCc2ccc(NC(=O)c3cccc(CNC(=O)C4=NC5=CC=NC(=O)C5C=C4)c3)cc2C1` (stereo not shown) [compound 122], 0.0275 µM.
The same measure, in the same setting: under `CN1CCc2ccc(NC(=O)c3cccc(CNC(=O)c4cccc(-n5ccnc5)c4)c3)cc2C1` [compound 186] stands 0.0145 µM; under `CN1CCc2nc(NC(=O)c3cccc(CNC(=O)c4ccc(-c5cccnc5)s4)c3)sc2C1` [compound 110], 0.0155 µM.
Molecule `CN1CCc2ccc(NC(=O)c3cccc(CNC(=O)c4cc(-c5cccnc5)[nH]n4)c3)cc2C1` [compound 188] yielded an IC50 against ROCKII (1-543) [1] of 0.0915 µM. Against the preceding molecule, the IC50 is about 5.9-fold higher.
Molecule `CN1CCc2ccc(NC(=O)c3cccc(CNC(=O)c4ccc5[nH]c(=O)ccc5c4)c3)cc2C1` [compound 175] showed a half-inhibitory concentration (IC50) against ROCKII (1-543) [1] of 0.0225 µM.

Values taken from patent publication US8697911B2, “Rho kinase inhibitors” (Boehringer Ingelheim International GmbH, priority 2010, dated 2014).
